Experimental data published in US20230212549A1, “COMPOUNDS COMPRISING A […] LIGAND AND USE THEREOF” (priority 2021, published 2023).
pIC50: −log10 of the molar value. Numbered stars: 1 amine (or outer) side, 2 acyl side, 3 side chain; on linkers, the order of the positions; unused ones are H or OH. Bridge positions count the residues as written; N and C are the ends. Square brackets hold non-standard residues; d marks the D form. Peptide text beside a SMILES is read from it. * marks the point of attachment. TBMB(SCH2CH2NH-DOTA) = O=C(O)CN1CCN(CC(=O)O)CCN(CC(=O)NCCSCc2cc(C[*:1])cc(C[*:2])c2)CCN(CC(=O)O)CC1; X13 = O=C(O)CN1CCN(CC(=O)O)CCN(CC(=O)N2CCN(Cc3cc(C[*:1])cc(C[*:2])c3)CC2)CCN(CC(=O)O)CC1; X32 = O=C(O)CN1CCN(CC(=O)O)CCN(CC(=O)NCc2cc(C[*:1])cc(C[*:2])c2)CCN(CC(=O)O)CC1; Phe(4-Cl) = N[C@@H](Cc1ccc(Cl)cc1)C(=O)O; Pro(4S-NH2) = N[C@@H]1CN[C@H](C(=O)O)C1; Phe(2-Cl) = N[C@@H](Cc1ccccc1Cl)C(=O)O; Pro(4,4-F2) = O=C(O)[C@@H]1CC(F)(F)CN1; mXylylene = c1cc(C[*:1])cc(C[*:2])c1; Pentanesulfonyl = CCCCCS(=O)(=O)*; Hyp = O=C(O)[C@@H]1C[C@@H](O)CN1; Nphe = O=C(O)CNCc1ccccc1; Orn = NCCC[C@H](N)C(=O)O; Hexanoyl = CCCCCC(=O)*; Nleu = CC(C)CNCC(=O)O; Nlys = NCCCCNCC(=O)O

How the values were obtained:
[1] = target: T1, FAP-expressing human WI-38 fibroblasts (Homo sapiens, UniProt Q12884); assay: Competitive FACS binding assay
T1 construct: FAP-expressing human WI-38 fibroblasts (ECACC) were cultured in EMEM; host or cells: WI-38 human fibroblasts
Experimental: Cells were analyzed in an Attune NxT flow cytometer. […] […].
Cells were analyzed in an Attune NxT flow cytometer. […]

Human recombinant FAP = Human recombinant FAP (Homo sapiens, UniProt Q12884); assay: FRET-based FAP protease activity assay; assay type: biochemical; parameters: purchased R&D systems 3715-SE; conditions: pIC50 Category (Activity), FRET-based FAP protease activity assay, recombinant human FAP, 37° C.
Human recombinant FAP, sequence (Q12884 whole entry): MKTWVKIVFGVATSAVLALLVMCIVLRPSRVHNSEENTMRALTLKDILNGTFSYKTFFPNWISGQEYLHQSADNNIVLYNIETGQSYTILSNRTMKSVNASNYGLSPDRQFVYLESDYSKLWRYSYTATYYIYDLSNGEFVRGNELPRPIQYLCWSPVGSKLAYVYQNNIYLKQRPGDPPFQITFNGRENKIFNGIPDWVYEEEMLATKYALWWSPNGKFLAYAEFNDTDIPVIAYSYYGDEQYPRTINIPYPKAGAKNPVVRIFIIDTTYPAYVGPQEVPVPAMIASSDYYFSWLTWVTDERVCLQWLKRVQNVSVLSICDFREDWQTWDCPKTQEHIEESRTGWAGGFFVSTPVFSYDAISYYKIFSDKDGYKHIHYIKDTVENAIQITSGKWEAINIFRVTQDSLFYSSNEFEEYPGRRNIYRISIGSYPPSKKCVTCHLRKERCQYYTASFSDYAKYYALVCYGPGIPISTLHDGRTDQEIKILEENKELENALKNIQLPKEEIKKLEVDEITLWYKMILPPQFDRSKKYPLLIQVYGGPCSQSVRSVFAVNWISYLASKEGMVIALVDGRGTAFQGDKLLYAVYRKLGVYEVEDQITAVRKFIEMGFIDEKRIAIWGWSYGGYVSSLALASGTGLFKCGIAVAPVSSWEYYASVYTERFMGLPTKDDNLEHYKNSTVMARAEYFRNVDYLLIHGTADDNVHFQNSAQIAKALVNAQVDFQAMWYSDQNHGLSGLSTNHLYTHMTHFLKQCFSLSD

T1 sequence (Q12884 whole entry): as above

Compound | pIC50 [1] | pIC50 (Human recombinant FAP)
CCCCCC(=O)N[C@H]1CSCc2cccc(c2)CSC[C@@H](C(N)=O)NC(=O)[C@H](Cc2ccccc2)NC(=O)[C@H](CCC(=O)O)NC(=O)[C@H]([C@@H](C)O)NC(=O)[C@@H]2CC(F)(F)CN2C(=O)[C@@H]2CCCN2C1=O [3BP-3365, Hex-[Cys(3MeBn)-Pro-4Dfp-Thr-Glu-Phe-Cys]-NH2] (Hexanoyl-CP[Pro(4,4-F2)]TEFC-NH2; linker 1-7 via mXylylene) | < 6.00 | 6.10 to 7.00
CCCCCC(=O)N[C@H]1CSCc2cccc(c2)CSC[C@@H](C(N)=O)NC(=O)[C@H](Cc2ccccc2)NC(=O)[C@H](CCC(=O)O)NC(=O)[C@H]([C@@H](C)O)NC(=O)[C@@H]2C[C@@H](O)CN2C(=O)[C@@H]2CCCN2C1=O [3BP-3366, Hex-[Cys(3MeBn)-Pro-Hyp-Thr-Glu-Phe-Cys]-NH2] (Hexanoyl-CP[Hyp]TEFC-NH2; linker 1-7 via mXylylene) | 7.10 to 8.00 | 7.10 to 8.00
CCCCCC(=O)N[C@H]1CSCc2cccc(c2)CSC[C@@H](C(N)=O)NC(=O)[C@H](Cc2ccccc2)NC(=O)[C@H](CCC(=O)O)NC(=O)[C@H]([C@@H](C)O)NC(=O)[C@@H]2C[C@H](N)CN2C(=O)[C@@H]2CCCN2C1=O [3BP-3367, Hex-[Cys(3MeBn)-Pro-Tap-Thr-Glu-Phe-Cys]-NH2] (Hexanoyl-CP[Pro(4S-NH2)]TEFC-NH2; linker 1-7 via mXylylene) | < 6.00 | 6.10 to 7.00
CCCCCC(=O)N[C@H]1CSCc2cccc(c2)CSC[C@@H](C(N)=O)NC(=O)[C@H](Cc2ccccc2Cl)NC(=O)[C@H](CCC(=O)O)NC(=O)[C@H]([C@@H](C)O)NC(=O)[C@@H]2CCCN2C(=O)[C@@H]2CCCN2C1=O [3BP-3368, Hex-[Cys(3MeBn)-Pro-Pro-Thr-Glu-Ocf-Cys]-NH2] (Hexanoyl-CPPTE[Phe(2-Cl)]C-NH2; linker 1-7 via mXylylene) | 6.10 to 7.00 | 7.10 to 8.00
CCCCCC(=O)N[C@H]1CSCc2cccc(c2)CSC[C@@H](C(N)=O)NC(=O)[C@H](Cc2ccc(Cl)cc2)NC(=O)[C@H](CCC(=O)O)NC(=O)[C@H]([C@@H](C)O)NC(=O)[C@@H]2CCCN2C(=O)[C@@H]2CCCN2C1=O [3BP-3369, Hex-[Cys(3MeBn)-Pro-Pro-Thr-Glu-Pcf-Cys]-NH2] (Hexanoyl-CPPTE[Phe(4-Cl)]C-NH2; linker 1-7 via mXylylene) | 6.10 to 7.00 | 6.10 to 7.00
CCCCCC(=O)N[C@H]1CSCc2cccc(c2)CSC[C@@H](C(N)=O)NC(=O)[C@H](Cc2ccccc2)NC(=O)[C@H](CCC(=O)O)NC(=O)[C@H](CCCNC(C)=O)NC(=O)[C@@H]2CCCN2C(=O)[C@@H]2CCCN2C1=O [3BP-3372, Hex-[Cys(3MeBn)-Pro-Pro-Orn(Ac)-Glu-Phe-Cys]-NH2] (Hexanoyl-CPP[Orn](Ac)EFC-NH2; linker 1-7 via mXylylene) | < 6.00 | 6.10 to 7.00
CCCCCC(=O)N[C@H]1CSCc2cccc(c2)CSC[C@@H](C(N)=O)NC(=O)[C@H](Cc2ccccc2C(F)(F)F)NC(=O)[C@H](CCC(N)=O)NC(=O)[C@H]([C@@H](C)O)NC(=O)[C@@H]2CCCN2C(=O)[C@@H]2CCCN2C1=O [3BP-3409, Hex-[Cys(3MeBn)-Pro-Pro-Thr-Gln-Otf-Cys]-NH2] | 7.10 to 8.00 | > 8.00
CCCCCC(=O)N[C@H]1CSCc2cc(CNC(=O)CN3CCN(CC(=O)O)CCN(CC(=O)O)CCN(CC(=O)O)CC3)cc(c2)CSC[C@@H](C(=O)N[C@@H](CC(=O)O)C(N)=O)NC(=O)[C@H](Cc2ccccc2)NC(=O)[C@H](CCC(N)=O)NC(=O)[C@H]([C@@H](C)O)NC(=O)[C@@H]2CCCN2C(=O)[C@@H]2CCCN2C1=O [3BP-3556, Hex-[Cys(tMeBn(DOTA-NH))-Pro-Pro-Thr-Gln-Phe-Cys]-Asp-NH2] (Hexanoyl-CPPTQFCD-NH2; linker 1-7 via X32) | 7.10 to 8.00 | 7.10 to 8.00
CSCC[C@@H](NC(C)=O)C(=O)N[C@H]1CSCc2cc(CSCCNC(=O)CN3CCN(CC(=O)O)CCN(CC(=O)O)CCN(CC(=O)O)CC3)cc(c2)CSC[C@@H](C(=O)O)NC(=O)[C@H](Cc2ccccc2)NC(=O)[C@H](CCC(N)=O)NC(=O)[C@H]([C@@H](C)O)NC(=O)[C@@H]2CCCN2C(=O)[C@@H]2CCCN2C1=O [3BP-3682, Ac-met-[Cys(tMeBn(DOTA-AET))-Pro-Pro-Thr-Gln-Phe-Cys]-OH] | 7.10 to 8.00 | 7.10 to 8.00
CCCCCS(=O)(=O)N[C@H]1CSCc2cc(CSCCNC(=O)CN3CCN(CC(=O)O)CCN(CC(=O)O)CCN(CC(=O)O)CC3)cc(c2)CSC[C@@H](C(=O)O)NC(=O)[C@H](Cc2ccccc2)NC(=O)[C@H](CCC(=O)O)NC(=O)[C@H]([C@@H](C)O)NC(=O)[C@@H]2CCCN2C(=O)[C@@H]2CCCN2C1=O [3BP-3691, Pentyl-SO2-[Cys(tMeBn(DOTA-AET))-Pro-Pro-Thr-Glu-Phe-Cys]-OH] (Pentanesulfonyl-CPPTEFC-OH; linker 1-7 via TBMB(SCH2CH2NH-DOTA)) | > 8.00 | 7.10 to 8.00
CCCCCC(=O)N[C@H]1CSCc2cc(cc(CN3CCN(C(=O)CN4CCN(CC(=O)O)CCN(CC(=O)O)CCN(CC(=O)O)CC4)CC3)c2)CSC[C@@H](C(=O)N[C@@H](CC(=O)O)C(N)=O)NC(=O)[C@H](Cc2ccccc2)NC(=O)[C@H](C)NC(=O)[C@H]([C@@H](C)O)NC(=O)[C@@H]2CCCN2C(=O)[C@@H]2CCCN2C1=O [3BP-3739, Hex-[Cys(tMeBn(DOTA-PP))-Pro-Pro-Thr-Ala-Phe-Cys]-Asp-NH2] (Hexanoyl-CPPTAFCD-NH2; linker 1-7 via X13) | 6.10 to 7.00 | 6.10 to 7.00
CCCCCC(=O)N[C@H]1CSCc2cc(cc(CN3CCN(C(=O)CN4CCN(CC(=O)O)CCN(CC(=O)O)CCN(CC(=O)O)CC4)CC3)c2)CSC[C@@H](C(=O)N[C@@H](CC(=O)O)C(N)=O)NC(=O)[C@H](Cc2ccccc2)NC(=O)[C@H](CCC(N)=O)NC(=O)[C@H](C)NC(=O)[C@@H]2CCCN2C(=O)[C@@H]2CCCN2C1=O [3BP-3745, Hex-[Cys(tMeBn(DOTA-PP))-Pro-Pro-Ala-Gln-Phe-Cys]-Asp-NH2] (Hexanoyl-CPPAQFCD-NH2; linker 1-7 via X13) | 6.10 to 7.00 | 6.10 to 7.00
CCCCCC(=O)N[C@H]1CSCc2cc(cc(CN3CCN(C(=O)CN4CCN(CC(=O)O)CCN(CC(=O)O)CCN(CC(=O)O)CC4)CC3)c2)CSC[C@@H](C(=O)N[C@@H](CC(=O)O)C(N)=O)NC(=O)[C@H](Cc2ccccc2)NC(=O)[C@H](C)NC(=O)[C@H](C)NC(=O)[C@@H]2CCCN2C(=O)[C@@H]2CCCN2C1=O [3BP-3746, Hex-[Cys(tMeBn(DOTA-PP))-Pro-Pro-Ala-Ala-Phe-Cys]-Asp-NH2] (Hexanoyl-CPPAAFCD-NH2; linker 1-7 via X13) | < 6.00 | 6.10 to 7.00
CCCCCC(=O)N[C@H]1CSCc2cccc(c2)CSC[C@@H](C(N)=O)NC(=O)[C@H](Cc2ccccc2)NC(=O)[C@H](CCC(N)=O)NC(=O)[C@H]([C@@H](C)O)NC(=O)[C@@H]2CCCN2C(=O)CN(CCCCN)C1=O [3BP-3747, Hex-[Cys(3MeBn)-Nlys-Pro-Thr-Gln-Phe-Cys]-NH2] (Hexanoyl-C[Nlys]PTQFC-NH2; linker 1-7 via mXylylene) | < 6.00 | < 6.00
CCCCCC(=O)N[C@H]1CSCc2cccc(c2)CSC[C@@H](C(N)=O)NC(=O)[C@H](Cc2ccccc2)NC(=O)[C@H](CCC(N)=O)NC(=O)[C@H]([C@@H](C)O)NC(=O)[C@@H]2CCCN2C(=O)CN(Cc2ccccc2)C1=O [3BP-3748, Hex-[Cys(3MeBn)-Nphe-Pro-Thr-Gln-Phe-Cys]-NH2] (Hexanoyl-C[Nphe]PTQFC-NH2; linker 1-7 via mXylylene) | < 6.00 | < 6.00
CCCCCC(=O)N[C@H]1CSCc2cccc(c2)CSC[C@@H](C(N)=O)NC(=O)[C@H](Cc2ccccc2)NC(=O)[C@H](CCC(N)=O)NC(=O)[C@H]([C@@H](C)O)NC(=O)[C@@H]2CCCN2C(=O)CN(CC(C)C)C1=O [3BP-3749, Hex-[Cys(3MeBn)-Nleu-Pro-Thr-Gln-Phe-Cys]-NH2] (Hexanoyl-C[Nleu]PTQFC-NH2; linker 1-7 via mXylylene) | < 6.00 | < 6.00
C[C@@H](O)[C@@H]1NC(=O)[C@@H]2CCCN2C(=O)[C@@H]2CCCN2C(=O)[C@@H](NC(=O)CCCCCN)CSCc2cccc(c2)CSC[C@@H](C(N)=O)NC(=O)[C@H](Cc2ccccc2)NC(=O)[C@H](CCC(N)=O)NC1=O [3BP-3759, H-Ahx-[Cys(3MeBn)-Pro-Pro-Thr-Gln-Phe-Cys]-NH2] | < 6.00 | < 6.00
C[C@@H](O)[C@@H]1NC(=O)[C@@H]2CCCN2C(=O)[C@@H]2CCCN2C(=O)[C@@H](NC(=O)CCCCN)CSCc2cccc(c2)CSC[C@@H](C(N)=O)NC(=O)[C@H](Cc2ccccc2)NC(=O)[C@H](CCC(N)=O)NC1=O [3BP-3760, H-Ava-[Cys(3MeBn)-Pro-Pro-Thr-Gln-Phe-Cys]-NH2] | < 6.00 | < 6.00
C[C@@H](O)[C@@H]1NC(=O)[C@@H]2CCCN2C(=O)[C@@H]2CCCN2C(=O)[C@@H](NC(=O)CCCN)CSCc2cccc(c2)CSC[C@@H](C(N)=O)NC(=O)[C@H](Cc2ccccc2)NC(=O)[C@H](CCC(N)=O)NC1=O [3BP-3761, H-Gab-[Cys(3MeBn)-Pro-Pro-Thr-Gln-Phe-Cys]-NH2] | < 6.00 | < 6.00
C[C@@H](O)[C@@H]1NC(=O)[C@@H]2CCCN2C(=O)[C@@H]2CCCN2C(=O)[C@@H](NC(=O)Cc2ccncc2)CSCc2cccc(c2)CSC[C@@H](C(N)=O)NC(=O)[C@H](Cc2ccccc2)NC(=O)[C@H](CCC(N)=O)NC1=O [3BP-3762, 4Pya-[Cys(3MeBn)-Pro-Pro-Thr-Gln-Phe-Cys]-NH2] | < 6.00 | 6.10 to 7.00
CC(=O)N[C@@H](CCO)C(=O)N[C@H]1CSCc2cccc(c2)CSC[C@@H](C(N)=O)NC(=O)[C@H](Cc2ccccc2)NC(=O)[C@H](CCC(N)=O)NC(=O)[C@H]([C@@H](C)O)NC(=O)[C@@H]2CCCN2C(=O)[C@@H]2CCCN2C1=O [3BP-3763, Ac-Hse-[Cys(3MeBn)-Pro-Pro-Thr-Gln-Phe-Cys]-NH2] | < 6.00 | 6.10 to 7.00
